The test system of data set [1] is Kaposi's sarcoma associated herpesvirus (KSHV) lytic replication. Nature of the data set: in vitro. It is filed as cell-based. The note with it: human; CC50 (iSLK.219 cells) / IC50 (KSHV lytic replication); read-out: Selective Index (CC50/IC50). The source says:
(§1) Human gamma herpes viruses such as Kaposi’s sarcoma-associated herpes virus (KSHV) is a type of pathogenic virus related to Kaposi’s sarcoma, like epidemic KS, posttransplant KS, multicentric Castleman’s disease, and primary effusion lymphoma. Anti-infection towards lytic replication of KSHV plays a pivotal role as decreased a risk of KS, which were evidenced in cases of AIDS-associated epidemic KS patients. In our exhaustive study to explore bioactivities of metabolites, an inhibition assay on lytic replication of KSHV was investigated for compounds 1 and 2 referring to the previous experiments. […] The details of the dose-dependent manner were shown in Figure S1, Supplementary Materials. More elaborate procedures of anti-KSHV assay were also stated in Supplementary Materials.
(§2) Figure 5 The effects of positive control cidofovir (CDV), 1 and 2 on human iSLK.219 cells viabilities and on lytic replication of KSHV infecting Vero cells were measured in vitro.
(§3) Human iSLK.219 cells were used to determine the antiviral activity of desired compounds against KSHV. The cells harbor the rKSHV.219 virus that encodes green fluorescent protein (GFP) under control of the elongation factor 1α promoter (EF-1α) and lytic replication of KSHV was reactivated with 1 µg/mL doxycycline (Dox) (Beyotime) and 1.2 mM sodium butyrate (NaB) (Sigama). Cells grown to 70% confluence 96-well tissue culture plates were treated with indicated concentrations of compounds in present of Dox and NaB. Then cell viability was assessed at 48 h post drugs-induction by AlamarBlue® Cell Viability Assay (Invitrogen) according to the manufacturer’s protocol. The luminescent signal was measured using the Envison 2102 Multilabel Reader (Perkin Elmer, Waltham, MA, USA). The 50% cytotoxic concentration (CC50) for each compound was calculated from these dose-response curves using Graphpad5.0 Prism. The results were presented as mean values with standard deviations (n = 3) […]
(§4) The antiviral effects of compounds on KSHV were determined by infectivity assay as previously described. The supernatants from iSLK.219-treated or untreated with the compounds in the presence of Dox and NaB were collected at 48 h. Then, the supernatants were used to infect the Vero cells seeded in a 96-well plate as previously reported using centrifugation at 1500× g for 60 min [4]. The supernatants were then removed and replaced with flash DMEM medium. At 48 h, the expression of GFP per well in Vero cells was detected and analyzed using the Operetta High-Content Screening System (HCS) (Perkin Elmer). Nine image fields per well were recorded by the automated microscope based HCS and the GFP intensity per well was calculated using the Harmony 3.5 software (Perkin Elmer). Data were normalized as the fold change compared to the DMSO control. The IC50 (50% effective concentration) values correspond to compound concentrations required to reduce quantitative expression of the intensity of GFP by 50%. The results are presented as the mean values with […]
(§5) Figure S1. HRESIMS spectrum of japopyrone A (1).

Data set [2] has as its system Kaposi’s sarcoma associated herpesvirus (KSHV). Nature of the data set: microbe, parasite or virus in culture. It is filed as cell-based. The note with it: Human gammaherpesvirus 8, Vero, 48 h.
Source text: as §1, §2, §3, §4, §5

Data set [3] can be described thus: Cell viability of iSLK.219 cells (AlamarBlue Cell Viability Assay). It is filed as cell-based. Particulars: iSLK.219 cells harbouring rKSHV.219 virus, human iSLK.219 cells, in presence of Dox and NaB. Here is the method:
as §2, §3
as §4, with “control.” for “control. The IC50 (50% effective concentration) values correspond to compound concentrations required to reduce quantitative expression of the intensity of GFP by 50%. The results are presented as the mean values with”

Data set [4] can be described thus: Cytotoxicity assay against human cancer cell line HL-60. The note with it: HL-60 cells. Format: cell-based. The source says: (§6) Natural products have provided a rich resource for the discovery of new drugs, innovative therapeutic agents, and lead structures. In our studious research towards the discovery for new lead compounds and useful bioactivities from Chinese traditional herbs, several bioactivity screenings such as cytotoxicity assays against five human cancer cell lines (HL-60, SMMC-7721, A-549, MCF-7, and SW480), inhibitory activities on NO production, and inhibitory activities on β-site amyloid precursor protein cleaving enzyme 1 (BACE1), were carried out for compounds 1 and 2.

A short description of data set [5]: Cytotoxicity assay against human cancer cell line SMMC-7721. Format: cell-based. Particulars: SMMC-7721 cells.
Source text: as §6

The nature of data set [6]: Cytotoxicity assay against human cancer cell line A-549. Format: cell-based. The note with it: A-549 cells.
Source text: as §6

Data set [7] in a line: Cytotoxicity assay against human cancer cell line MCF-7. Particulars: MCF-7 cells. Format: cell-based.
Source text: as §6

Data set [8] in a line: Cytotoxicity assay against human cancer cell line SW480. It is filed as cell-based. The note with it: SW480 cells.
Source text: as §6

Another data set deals with NO production. The experiment in a line: NO production inhibition assay. It is filed as cell-based.
Source text: as §6

Data set [9] concerns the target β-site amyloid precursor protein cleaving enzyme 1 (BACE1) (Homo sapiens, UniProt P56817). Nature of the data set: BACE1 inhibition assay. Format: biochemical.
Source text: as §6

Bounds are passed on as bounds.

Sequence of β-site amyloid precursor protein cleaving enzyme 1 (BACE1) (P56817 22-501 limits assumed, species assumed): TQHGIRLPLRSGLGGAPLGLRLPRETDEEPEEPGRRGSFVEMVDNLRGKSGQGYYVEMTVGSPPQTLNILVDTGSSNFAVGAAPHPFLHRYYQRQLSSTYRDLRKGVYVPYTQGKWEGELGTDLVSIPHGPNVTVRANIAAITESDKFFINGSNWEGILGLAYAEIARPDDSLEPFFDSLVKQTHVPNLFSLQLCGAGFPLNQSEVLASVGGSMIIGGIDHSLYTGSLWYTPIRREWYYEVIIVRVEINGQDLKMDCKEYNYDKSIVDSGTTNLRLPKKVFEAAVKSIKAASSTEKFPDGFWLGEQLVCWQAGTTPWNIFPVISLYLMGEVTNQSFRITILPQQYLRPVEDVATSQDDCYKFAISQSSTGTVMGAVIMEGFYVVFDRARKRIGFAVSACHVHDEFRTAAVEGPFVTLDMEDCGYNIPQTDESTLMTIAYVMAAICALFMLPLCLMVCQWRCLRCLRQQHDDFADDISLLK

As to `COc1ccc(-c2cc3c(c(=O)o2)C(C)(C)[C@H](C)O3)cc1OC` [Compound 2, japopyrone B], the selectivity ratio at 48 h in [1] is over 6.79. For the same molecule, the IC50 in [2] is 29.5 µM; in data set [4] it was over 40 µM; in data set [5] it was over 40 µM; in data set [6], over 40 µM; in data set [7], over 40 µM; in data set [8], over 40 µM. Further, the values for the IC50 (in the data set on NO production; in data set [9]) were over 25 µM and over 40 µM, respectively. For the same molecule, the half-maximal cytotoxic concentration (CC50) at 48 h in data set [3] was over 200 µM.

Regarding `COc1cc(-c2cc3c(c(=O)o2)C(C)(C)[C@H](C)O3)ccc1O` [Compound 1, japopyrone A], the selectivity ratio at 48 h in [1] is over 2.34. The IC50 was 85.3 µM in data set [2]; over 40 µM in data set [4]; over 40 µM in [5]; over 40 µM in [6]; over 40 µM in data set [7]; over 40 µM in [8]. Also, the figures for the IC50 (in the data set on NO production; in data set [9]) were over 25 µM and over 40 µM, respectively. Moreover, the cytotoxic concentration (CC50) at 48 h in data set [3] was over 200 µM.

With `Nc1ccn(C[C@@H](CO)OCP(=O)(O)O)c(=O)n1` [CDV, cidofovir, reference compound], the selectivity ratio at 48 h in data set [1] is over 250. Besides, the concentration for half-maximal inhibition (IC50) in data set [2] is under 0.004 µM. In addition, the CC50 at 48 h in data set [3] is over 1 µM.
